{"source": "patent US20120077802A1", "about": "(SUNOVION PHARMACEUTICALS INC., priority 2009, published 2012)"}
{"molecular_target": "T1, human histamine H3 receptor (Homo sapiens, UniProt Q9Y5N1)", "T1 construct": "host or cells: cells expressing the human H3 receptor", "T1 sequence (Q9Y5N1 whole entry)": "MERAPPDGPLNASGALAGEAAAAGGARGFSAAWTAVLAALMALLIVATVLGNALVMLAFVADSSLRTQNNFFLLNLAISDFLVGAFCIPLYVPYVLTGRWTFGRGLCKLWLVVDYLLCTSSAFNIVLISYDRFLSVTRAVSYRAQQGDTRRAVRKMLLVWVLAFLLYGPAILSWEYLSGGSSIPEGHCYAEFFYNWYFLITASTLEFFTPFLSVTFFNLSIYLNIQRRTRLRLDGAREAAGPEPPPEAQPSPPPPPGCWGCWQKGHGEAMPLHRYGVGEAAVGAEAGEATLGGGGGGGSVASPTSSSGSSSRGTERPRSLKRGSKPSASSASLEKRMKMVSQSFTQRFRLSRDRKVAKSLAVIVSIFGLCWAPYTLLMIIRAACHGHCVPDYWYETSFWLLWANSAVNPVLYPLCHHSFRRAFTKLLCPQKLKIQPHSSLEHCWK", "test": "H3 GTPγS assay (SPA method), histamine H3 in vitro assay", "format": "biochemical", "conditions": "GTPγ[35S] SPA, membranes of cells expressing human H3 receptor; in one embodiment HCl salts tested; read-out: Potency (functional potency as indicated by IC50)", "description": "H3 GTPγS assay (SPA method) was performed at EuroScreen (Belgium, ES-392-C) using conventional methods. Briefly, cells expressing the human histamine H3 receptor were homogenized in 15 mM Tris-HCl pH 7.5, 2 mM MgCl2, 0.3 mM EDTA, and 1 mM EGTA. Membranes were washed twice in the above tris buffer, collected by centrifugation (40,000×g, 25 min), and re-suspended in 75 mM Tris-HCl pH 7.5, 12.5 mM MgCl2, 0.3 mM EDTA, 1 mM EGTA, and 250 mM sucrose. Membranes were frozen in liquid nitrogen until use. On the day of the assay, membranes were thawed and diluted in assay buffer (20 mM HEPES pH 7.4, 100 mM NaCl, 10 μg/ml saponin, 1 mM MgCl2) to give 500 μg/ml and mixed (v/v) with GDP in assay buffer for a final GDP concentration of 10 μM and incubated on ice for at least 15 min. PVT-WGA beads (Amersham, RPNQ001) were diluted in assay buffer at 50 mg/mL and mixed with GTPγ[^35S] (Amersham, SJ1308) diluted in assay buffer to give ˜25,000 dpm/10 μL, and mixed vol/vol just before the start of the reaction. The reaction was started by adding 50 μL of test compound, 20 μL of the membranes:GDP mix, 10 μL of buffer, and 20 μL of the GTPγ[^35S]:beads mix in a 96 well plate Optiplate™ (PerkinElmer, 6005299) covered with topseal (TopCount™, PerkinElmer), mixed with an orbital shaker for 2 min, incubated for 1 hour at room temperature, centrifuged for 10 min at 2000 rpm, incubated for 1 h at room temperature, and counted for 1 min in a TopCount™ reader (PerkinElmer). Dose response curves and IC50 values (concentration to inhibit the reaction by 50%) were calculated by nonlinear regression using XLfit software (IDBS).\nFor antagonists testing, 10 μL of a reference agonist (R-γ-Me-Histamine) instead of 10 μL buffer was added at a concentration corresponding to the EC80 (30 nM). Control ligands were R-γ-Me-Histamine (Tocris, 0569), Imetit (Sigma, I-135), Thioperamide (Tocris, 0644), and Clobenpropit (Tocris, 0754) diluted in assay buffer.\nThe compounds provided herein were tested in the histamine H3 in vitro assay. In one embodiment, the respective HCl salts of the compounds provided herein were prepared using standard chemical procedures and tested in the histamine H3 in vitro assay.", "units": {"IC50": "nM"}}
{"compound": "CN1CCC(N2CCC3(CC2)Cc2cc(-c4ccc(C#N)cc4)ccc2O3)CC1", "note": "[Compound 8, 4-(1′-(1-Methylpiperidin-4-yl)-3H-spiro[benzofuran-2,4′-piperidine]-5-yl)benzonitrile]", "IC50": "≤ 100"}
{"compound": "CC(=O)Nc1ccc(-c2ccc3c(c2)CC2(CCN(C(C)C4CCC4)CC2)O3)cc1", "note": "(stereo not shown) [Compound 12, N-(4-(1′-(1-Cyclobutylethyl)-3H-spiro[benzofuran-2,4′-piperidine]-5-yl)phenyl)acetamide]", "IC50": "≤ 10"}
{"compound": "CC(C1CCC1)N1CCC2(CC1)Cc1cc(-c3ccc(C#N)cc3)ccc1O2", "note": "(stereo not shown) [Compound 11, 4-(1′-(1-Cyclobutylethyl)-3H-spiro[benzofuran-2,4′-piperidine]-5-yl)benzonitrile]", "IC50": "≤ 10"}
{"compound": "CC(C1CCC1)N1CCC2(CC1)Cc1cc(-c3ccc(CN)cc3)ccc1O2", "note": "(stereo not shown) [Compound 16, (4-(1′-(1-Cyclobutylethyl)-3H-spiro[benzofuran-2,4′-piperidine]-5-yl)phenyl)methanamine]", "IC50": "≤ 10"}
{"compound": "c1cnc(-c2ccc3c(c2)CC2(CCN(C4CCC4)CC2)O3)cn1", "note": "[Compound 29, 1′-Cyclobutyl-5-(pyrazin-2-yl)-3H-spiro[benzofuran-2,4′-piperidine]]", "IC50": "≤ 10"}
{"compound": "COc1ccnc(-c2ccc3c(c2)OC2(CCN(C4CCC4)CC2)C3)n1", "note": "[Compound 36, 1′-Cyclobutyl-6-(4-methoxypyrimidin-2-yl)-3H-spiro[benzofuran-2,4′-piperidine]]", "IC50": "≤ 100"}
{"compound": "Cn1cc2ccc(-c3ccc4c(c3)CC3(CCN(C5CCC5)CC3)O4)cc2n1", "note": "[Compound 66, 1′-Cyclobutyl-5-(2-methyl-2H-indazol-6-yl)-3H-spiro[benzofuran-2,4′-piperidine]]", "IC50": "≤ 10"}
{"compound": "N#Cc1ccc(-c2ccc3c(c2)CC2(CCN(CC4CCC4)CC2)O3)cc1", "note": "[Compound 21, 4-(1′-(Cyclobutylmethyl)-3H-spiro[benzofuran-2,4′-piperidine]-5-yl)benzonitrile]", "IC50": "≤ 1000"}
{"compound": "N#Cc1ccc(-c2ccc3c(c2)CC2(CCCN4CCCCC4C2)O3)cc1", "note": "(stereo not shown) [Compound 86, 4-(2′,3′,4′,6′,7′,8′,10′,10a′-octahydro-1′H,3H-spiro[benzofuran-2,9′-pyrido[1,2-a]azepin]-5-yl)benzonitrile]", "IC50": "≤ 10"}
{"compound": "CC(=O)Nc1ccc(-c2ccc3c(c2)CC2(CCN(C4CCC4)CC2)O3)cc1", "note": "[Compound 6, N-(4-(1′-Cyclobutyl-3H-spiro[benzofuran-2,4′-piperidine]-5-yl)phenyl)acetamide]", "IC50": "≤ 10"}
{"compound": "N#Cc1ccc(-c2ccc3c(c2)CC2(CCN4CCCCC4C2)O3)cc1", "note": "(stereo not shown) [Compound 75, 4-(-1′,3′,4′,6′,7′,8′,9′,9a′-Octahydro-3H-spiro[benzofuran-2,2′-quinolizin]-5-yl)benzonitrile]", "IC50": "≤ 10"}
{"compound": "c1cc2c(cc1N1CCCCC1)CC1(CCN(C3CCC3)CC1)O2", "note": "[Compound 34, 1′-Cyclobutyl-5-(piperidin-1-yl)-3H-spiro[benzofuran-2,4′-piperidine]]", "IC50": "≤ 100"}
{"compound": "c1cc2c(cc1CN1CCOCC1)CC1(CCN3CCCCC3C1)O2", "note": "(stereo not shown) [Compound 79, 5-(Morpholinomethyl)-1′,3′,4′,6′,7′,8′,9′,9a′-octahydro-3H-spiro[benzofuran-2,2′-quinolizine]]", "IC50": "≤ 10"}
{"compound": "N#Cc1ccc(NCc2ccc3c(c2)CC2(CCN(C4CCC4)CC2)O3)cc1", "note": "[Compound 42, 4-((1′-Cyclobutyl-3H-spiro[benzofuran-2,4′-piperidine]-5-yl)methylamino)benzonitrile]", "IC50": "≤ 100"}
{"compound": "c1ccc2c(c1)CCN(Cc1ccc3c(c1)CC1(CCN4CCCC4C1)O3)C2", "note": "(stereo not shown) [Compound 93]", "IC50": "≤ 10"}
{"compound": "c1cn2cc(-c3ccc4c(c3)CC3(CCC5CCCCN5CC3)O4)ccc2n1", "note": "(stereo not shown) [Compound 83, 5-(Imidazo[1,2-a]pyridin-6-yl)-2′,3′,4′,6′,7′,9′,10′,10a′-octahydro-1′H,3H-spiro[benzofuran-2,8′-pyrido[1,2-a]azepine]]", "IC50": "≤ 100"}
{"compound": "c1cc2c(cc1CN1CCCC1)OC1(CCN(C3CCC3)CC1)C2", "note": "[Compound 45, 1′-Cyclobutyl-6-(pyrrolidin-1-ylmethyl)-3H-spiro[benzofuran-2,4′-piperidine]]", "IC50": "≤ 100"}
{"compound": "N#Cc1ccc(-c2ccc3c(c2)CC2(CCN(C4CCCC4)CC2)O3)cc1", "note": "[Compound 17, 4-(1′-Cyclopentyl-3H-spiro[benzofuran-2,4′-piperidine]-5-yl)benzonitrile]", "IC50": "≤ 100"}
{"compound": "c1cn2cc(-c3ccc4c(c3)CC3(CCN5CCCC5C3)O4)ccc2n1", "note": "(stereo not shown) [Compound 91, 5-(Imidazo[1,2-a]pyridin-6-yl)-2′,3′,5′,6′,8′,8a′-hexahydro-1′H,3H-spiro[benzofuran-2,7′-indolizine]]", "IC50": "≤ 10"}
{"compound": "Cc1cn2cc(-c3ccc4c(c3)CC3(CCN(C5CCC5)CC3)O4)ccc2n1", "note": "[Compound 54, 1′-Cyclobutyl-5-(2-methylimidazo[1,2-a]pyridin-6-yl)-3H-spiro[benzofuran-2,4′-piperidine]]", "IC50": "≤ 10"}
{"compound": "Brc1ccc2c(c1)CC1(CCN(C3CCC3)CC1)O2", "note": "[Compound 23, 5-Bromo-1′-cyclobutyl-3H-spiro[benzofuran-2,4′-piperidine]]", "IC50": "≤ 1000"}
{"compound": "N#Cc1ccc(-c2ccc3c(c2)CC2(CCC4CCCCN4CC2)O3)cc1", "note": "(stereo not shown) [Compound 85, 4-(2′,3′,4′,6′,7′,9′,10′,10a′-Octahydro-1′H,3H-spiro[benzofuran-2,8′-pyrido[1,2-a]azepin]-5-yl)benzonitrile]", "IC50": "≤ 10"}
{"compound": "c1cc2c(cc1-c1cn[nH]c1)CC1(CCN(C3CCC3)CC1)O2", "note": "[Compound 27, 1′-Cyclobutyl-5-(1H-pyrazol-4-yl)-3H-spiro[benzofuran-2,4′-piperidine]]", "IC50": "≤ 100"}
{"compound": "c1ccc2c(c1)ncn2-c1ccc2c(c1)C[C@]1(CCCN(C3CCC3)CC1)O2", "note": "(single isomer, unassigned) [Compound 53, 5′-(1H-Benzo[d]imidazol-1-yl)-1-cyclobutyl-3′H-spiro[azepane-4,2′-benzofuran]]", "IC50": "≤ 100"}
{"compound": "N#Cc1ccc(-c2ccc3c(c2)CC2(CCN4CCCC4C2)O3)cc1", "note": "(stereo not shown) [Compound 90, 4-(2′,3′,5′,6′,8′,8a′-Hexahydro-1′H,3H-spiro[benzofuran-2,7′-indolizin]-5-yl)benzonitrile]", "IC50": "≤ 10"}
{"compound": "c1cc2c(cc1-c1ccc3cncn3c1)CC1(CCN(C3CCC3)CC1)O2", "note": "[Compound 57, 1′-Cyclobutyl-5-(imidazo[1,5-a]pyridin-6-yl)-3H-spiro[benzofuran-2,4′-piperidine]]", "IC50": "≤ 10"}
{"compound": "c1cn(-c2ccc3c(c2)CC2(CCN(C4CCC4)CC2)O3)cn1", "note": "[Compound 31, 1′-Cyclobutyl-5-(1H-imidazol-1-yl)-3H-spiro[benzofuran-2,4′-piperidine]]", "IC50": "≤ 10"}
{"compound": "c1cc2c(cc1N1CCCCC1)OC1(CCCN(C3CCC3)CC1)C2", "note": "(stereo not shown) [Compound 71, 1-Cyclobutyl-6′-(piperidin-1-yl)-3′H-spiro[azepane-4,2′-benzofuran]]", "IC50": "≤ 100"}
{"compound": "CC(=O)Nc1ccc(-c2ccc3c(c2)CC2(CCN(C4CCN(C)CC4)CC2)O3)cc1", "note": "[Compound 9, N-(4-(1′-(1-Methylpiperidin-4-yl)-3H-spiro[benzofuran-2,4′-piperidine]-5-yl)phenyl)acetamide]", "IC50": "≤ 100"}
{"compound": "c1cnc(-c2ccc3c(c2)OC2(CCN(C4CCC4)CC2)C3)cn1", "note": "[Compound 37, 1′-Cyclobutyl-6-(pyrazin-2-yl)-3H-spiro[benzofuran-2,4′-piperidine]]", "IC50": "≤ 100"}
{"compound": "5-(Imidazo[1,2-a]pyridin-6-yl)-1′,2′,3′,5′,6′,7′,9′,9a′-octahydro-3H-spiro[benzofuran-2,8′-pyrrolo[1,2-a]azepine] and 5-(imidazo[1,2-a]pyridin-6-yl)-1′,2′,3′,5′,6′,8′,9′,9a′-octahydro-3H-spiro[benzofuran-2,7′-pyrrolo[1,2-a]azepine] [96/96a]", "IC50": "≤ 10"}
{"compound": "CN1CCC(N2CCC3(CC2)Cc2cc(-c4ccc5[nH]ccc5c4)ccc2O3)CC1", "note": "[Compound 10, 5-(1H-Indol-5-yl)-1′-(1-methylpiperidin-4-yl)-3H-spiro[benzofuran-2,4′-piperidine]]", "IC50": "≤ 1000"}
{"compound": "NCc1ccc(-c2ccc3c(c2)CC2(CCN(C4CCC4)CC2)O3)cc1", "note": "[Compound 14, (4-(1′-Cyclobutyl-3H-spiro[benzofuran-2,4′-piperidine]-5-yl)phenyl)methanamine]", "IC50": "≤ 100"}
{"compound": "c1cn2cc(-c3ccc4c(c3)CC3(CCCN5CCCCC5C3)O4)ccc2n1", "note": "(stereo not shown) [Compound 84, 5-(imidazo[1,2-a]pyridin-6-yl)-2′,3′,4′,6′,7′,8′,10′,10a′-octahydro-1′H,3H-spiro[benzofuran-2,9′-pyrido[1,2-a]azepine]]", "IC50": "≤ 100"}
